# US20050112066A1, “Complexes of cyclic polyaza chelators with cations of alkaline earth metals for enhanced biological activity” (CONCAT LP, a California Limited Partnership, priority 2003, published 2005)
# Where two headings read alike, the source gives them in different places.
# What was measured:
# [1] = test system: mammalian cell replication; assay: inhibition of mammalian cell replication in vitro; type: cell-based
# [2] = test system: Laboratory mice; assay: acute in vivo toxicity, single intravenous dose to mice; conditions: 3.0 mM/kg single intravenous dose
# Protocol: This example illustrates the low in vivo toxicity of a representative example of the chelators of this invention upon administration to mice.
# Laboratory mice were treated by the intravenous administration of 3.0 mM/kg intravenously of the sodium salt of N,N′,N″-tris(dihydroxyphosphoryl-methyl)-1,4,7-triazacyclononane as a single intravenous dose. […] This in vivo LD50 toxicity dose results in an instantaneous in vivo concentration which is orders of magnitude greater than the dose of this agent which inhibits mammalian cell replication in vitro (0.009 mM/L).
# [3] = test system: Corynebacterium Xerosis; assay: minimum inhibitory concentration against skin bacteria; type: cell-based
# Protocol: This effect is unexpected since the presence of cations other than those of first transition series elements would be expected to inhibit the rate and extent of complexation of the first transition series elements by both the cyclic and linear chelators, albeit to differing degrees.
# Two chelators were compared in terms of their minimum inhibitory concentrations (MIC) against the common skin bacteria Corynebacterium Xerosis in media containing either 3.7 mg/L or 137 mg/L of Ca(II). The two chelators were N,N′,N″-tri(dihydroxyphosphoryl methyl)-1,4,7-triazacyclononane (within the scope of the present invention) and diethylene triamine pentaacetic acid (DTPA) (outside the scope of the present invention). The MIC for the triazacyclononane was 8 μg/mL in medium containing 3.7 mg/L of Ca(II), and 5 μg/mL in medium containing 137 mg/L of Ca(II).
# [4] = test system: HFF (human foreskin fibroblasts); assay: toxicity toward nonproliferating mammalian cells in vitro; type: cell-based; conditions: 0.3 mM; mature, nonreplicating HFF cultures in maintenance media; five-day period of observation
# Protocol: This example illustrates the relatively low toxicity of a representative example of the chelators of this invention toward nonproliferating mammalian cells in vitro.
# To mature, nonreplicating cultures of HFF (human foreskin fibroblasts) kept in maintenance media was added N,N′,N″-tris(dihydroxyphosphorylmethyl)-1,4,7-triazacyclononane at a concentration of 0.3 mM. No effect on the resting cells was observed over a five-day period of observation.
# [5] = test system: Sprague Dawley rats; assay: subacute toxicity, repeated intravenous doses to rats; type: in vivo; conditions: 0.05 millimoles per kg i.v. on 10 days
# Source text: Ten male Sprague Dawley rats 29 days old and weighing between 73.4 and 87.8 grams at the beginning of the experiment were randomized, employing the block stratification method, into two groups consisting of five rats each. On each of days 1, 2, 3, 6, 7, 8, 9, 10,13 and 14 of the experiment one set of rats received an intravenous dose of N,N′,N″-tri(dihydroxyphosphoryl methyl)-1,4,7-triazacyclononane equal to 0.05 millimoles per kg of initial body weight (experimental group) while the other group received an equivalent volume of normal saline solution. The weights of the animals were recorded three times per week and the animals were sacrificed on the 28th day, major organs removed and weighed and tissues removed for microscopic examination.
# [6] = room temperature; cited from earlier work
smiles,measurement,setting,value
"O=P([O-])([O-])CN1CCN(CP(=O)(O)O)CCN(CP(=O)(O)O)CC1.[Na+].[Na+] [sodium salt of N,N′,N″-tris(dihydroxyphosphoryl-methyl)-1,4,7-triazacyclononane]",dose which inhibits mammalian cell replication in vitro,[1],0.009 mM/L
same,mice surviving for over 14 days,[2],Over 50%
"O=C(O)CN(CCN(CC(=O)O)CC(=O)O)CCN(CC(=O)O)CC(=O)O [DTPA, diethylene triamine pentaacetic acid, reference compound]",MIC,[3]; medium containing 3.7 mg/L of Ca(II),36 µg/mL
same,MIC,[3]; medium containing 137 mg/L of Ca(II),320 µg/mL
"O=P(O)(O)CN1CCN(CP(=O)(O)O)CCN(CP(=O)(O)O)CC1 [N,N′,N″-Tris-(dihydroxyphosphorylmethyl)-1,4,7-triazacyclononane]",effect on the resting cells,[4],No effect
same,MIC,"[3]; Corynebacterium xerosis, medium containing 3.7 mg/L of Ca(II), read-out: MIC",8 µg/mL
same,MIC,"[3]; Corynebacterium xerosis, medium containing 137 mg/L of Ca(II), read-out: MIC",5 µg/mL
same,differences between tissues upon microscopic examination of major organs vs control group,[5]; necropsy on the 28th day,no differences
same,difference in weight or rate of weight gain vs control group,[5]; period of injections and two-week post-injection period,no statistically significant difference
same,differences in weights of major organs vs control group,[5]; sacrificed on the 28th day,no differences
same,time to achieve equilibrium with the cations,[6],many months
